What follows are compounds tested against KRAS G12C and cRAF (Ras-binding domain) interaction (Homo sapiens (Human), UniProt P01116, C118S/C51S/C80L/G12C) (assay: Inhibition of KRAS G12C and cRAF binding (AlphaScreen)). Conditions: GMPPNP-loaded KRAS G12C, 19-20 hours incubation with compound; read-out: IC50 (Inhibition of KRAS G12C and cRAF Binding).
Outline: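 Compounds (DMSO) preincubated 19-20 h at room temperature, then RBD with streptavidin donor and glutathione acceptor beads added in 25 mM Hepes pH 7.4, 150 mM NaCl, 5 mM MgCl2, 0.01% Triton X-100, 2% DMSO for 60-90 min. Emission 570 nm (excitation 680 nm); IC50 by 4-parameter fit. Counter-screen used biotin-AviTag-GST instead of RBD.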

Sequence of KRAS G12C and cRAF (Ras-binding domain) interaction (P01116 other isoform, or with tags, fused parts or gaps G12C/C51S/C80L/C118S): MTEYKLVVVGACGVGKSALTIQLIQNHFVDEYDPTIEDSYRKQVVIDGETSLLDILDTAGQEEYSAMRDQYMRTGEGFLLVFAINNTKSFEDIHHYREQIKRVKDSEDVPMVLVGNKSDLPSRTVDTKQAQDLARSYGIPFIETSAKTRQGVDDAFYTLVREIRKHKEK

IC50 [nM] | SMILES
> 500 | CN(c1nc(OC[C@@]23CCCN2C[C@H](F)C3)nc2c1CCN(c1cccc3cccc(Cl)c13)C2)[C@@H]1CCN(C(=O)/C=C/c2cn(C)cn2)C1 [Example 110, (E)-1-((R)-3-((7-(8-chloronaphthalen-1-yl)-2-(((2R,7aS)-2-fluorohexahydro-1H-pyrrolizin-7a-yl)methoxy)-5,6,7,8-tetrahydropyrido[3,4-d]pyrimidin-4-yl)(methyl)amino)pyrrolidin-1-yl)-3-(1-methyl-1H-imidazol-4-yl)prop-2-en-1-one]
10 to 100 | CN(c1nc(OC[C@@]23CCCN2C[C@H](F)C3)nc2c(F)c(-c3cccc4cccc(Cl)c34)ncc12)[C@@H]1CCN(C(=O)/C=C/c2nc(C3CCC3)no2)C1 [Example 111, (E)-1-((R)-3-((7-(8-chloronaphthalen-1-yl)-8-fluoro-2-(((2R,7aS)-2-fluorohexahydro-1H-pyrrolizin-7a-yl)methoxy)pyrido[4,3-d]pyrimidin-4-yl)(methyl)amino)pyrrolidin-1-yl)-3-(3-cyclobutyl-1,2,4-oxadiazol-5-yl)prop-2-en-1-one]
10 to 100 | CN(c1nc(OC[C@@]23CCCN2C[C@H](F)C3)nc2c1CCN(c1cccc3cccc(Cl)c13)C2)[C@@H]1CCN(C(=O)/C=C/c2nc(C3(C)CC3)no2)C1 [Example 114, (E)-1-((R)-3-((7-(8-chloronaphthalen-1-yl)-2-(((2R,7aS)-2-fluorohexahydro-1H-pyrrolizin-7a-yl)methoxy)-5,6,7,8-tetrahydropyrido[3,4-d]pyrimidin-4-yl)(methyl)amino)pyrrolidin-1-yl)-3-(3-(1-methylcyclopropyl)-1,2,4-oxadiazol-5-yl)prop-2-en-1-one]
> 500 | CN(c1nc(OCC23CCCN2CCC3)nc2c(F)c(-c3cccc4cccc(Cl)c34)ncc12)[C@@H]1CCN(C(=O)/C=C/c2cn(C)cn2)C1 [Example 115, (R,E)-1-(3-((7-(8-chloronaphthalen-1-yl)-8-fluoro-2-((hexahydro-1H-pyrrolizin-7a-yl)methoxy)pyrido[4,3-d]pyrimidin-4-yl)(methyl)amino)pyrrolidin-1-yl)-3-(1-methyl-1H-imidazol-4-yl)prop-2-en-1-one]
10 to 100 | C=CC(=O)N1C[C@H](N(C)c2nc(OCC34CCCN3CCC4)nc3c(F)c(-c4cccc5cccc(Cl)c45)ncc23)CC1C#N (stereo partly drawn) [Example 118, (4R)-1-acryloyl-4-((7-(8-chloronaphthalen-1-yl)-8-fluoro-2-((hexahydro-1H-pyrrolizin-7a-yl)methoxy)pyrido[4,3-d]pyrimidin-4-yl)(methyl)amino)pyrrolidine-2-carbonitrile]
100 to 500 | C=CC(=O)N1C[C@H](N(C)c2nc(OCC34CCCN3CCC4)nc3c(F)c(-c4cccc5cccc(Cl)c45)ncc23)C[C@H]1CC#N [Example 119, 2-((2S,4R)-1-acryloyl-4-((7-(8-chloronaphthalen-1-yl)-8-fluoro-2-((tetrahydro-1H-pyrrolizin-7a(5H)-yl)methoxy)pyrido[4,3-d]pyrimidin-4-yl)(methyl)amino)pyrrolidin-2-yl)acetonitrile]
10 to 100 | CN(c1nc(OC[C@@]23CCCN2C[C@H](F)C3)nc2c1CCN(c1cccc3cccc(Cl)c13)C2)[C@@H]1CCN(C(=O)/C=C/c2nc(C3CC3)no2)C1 [Example 120, (E)-1-((R)-3-((7-(8-chloronaphthalen-1-yl)-2-(((2R,7aS)-2-fluorohexahydro-1H-pyrrolizin-7a-yl)methoxy)-5,6,7,8-tetrahydropyrido[3,4-d]pyrimidin-4-yl)(methyl)amino)pyrrolidin-1-yl)-3-(3-cyclopropyl-1,2,4-oxadiazol-5-yl)prop-2-en-1-one]
100 to 500 | CN(c1nc(OC[C@@]23CCCN2C[C@H](F)C3)nc2c(F)c(-c3cccc4ccc(F)c(Cl)c34)ncc12)[C@@H]1CCN(C(=O)/C=C/C2CNCCO2)C1 (stereo partly shown) [Example 122]
100 to 500 | CN(c1nc(OC[C@@]23CCCN2C[C@H](F)C3)nc2c(F)c(-c3cccc4ccc(F)c(Cl)c34)ncc12)[C@@H]1CCN(C(=O)/C=C/C2COCCN2)C1 (stereo partly drawn) [Example 123, (E)-1-((R)-3-((7-(8-chloro-7-fluoronaphthalen-1-yl)-8-fluoro-2-(((2R,7aS)-2-fluorotetrahydro-1H-pyrrolizin-7a(5H)-yl)methoxy)pyrido[4,3-d]pyrimidin-4-yl)(methyl)amino)pyrrolidin-1-yl)-3-(morpholin-3-yl)prop-2-en-1-one]
10 to 100 | CN1CCCC1/C=C/C(=O)N1CC[C@@H](N(C)c2nc(OC[C@@]34CCCN3C[C@H](F)C4)nc3c(F)c(-c4cccc5ccc(F)c(Cl)c45)ncc23)C1 (stereo partly drawn) [Example 124, (E)-1-((R)-3-((7-(8-chloro-7-fluoronaphthalen-1-yl)-8-fluoro-2-(((2R,7aS)-2-fluorotetrahydro-1H-pyrrolizin-7a(5H)-yl)methoxy)pyrido[4,3-d]pyrimidin-4-yl)(methyl)amino)pyrrolidin-1-yl)-3-(1-methylpyrrolidin-2-yl)prop-2-en-1-one]
100 to 500 | CN1CC(/C=C/C(=O)N2CC[C@@H](N(C)c3nc(OC[C@@]45CCCN4C[C@H](F)C5)nc4c(F)c(-c5cccc6ccc(F)c(Cl)c56)ncc34)C2)C1 [Example 127, (E)-1-((R)-3-((7-(8-chloro-7-fluoronaphthalen-1-yl)-8-fluoro-2-(((2R,7aS)-2-fluorotetrahydro-1H-pyrrolizin-7a(5H)-yl)methoxy)pyrido[4,3-d]pyrimidin-4-yl)(methyl)amino)pyrrolidin-1-yl)-3-(1-methylazetidin-3-yl)prop-2-en-1-one]
100 to 500 | CN(c1nc(OCC23CCCN2CCC3)nc2c1CCN(c1cccc3cccc(Cl)c13)C2)[C@@H]1CCN(C(=O)/C=C/c2nc(C3(C)CC3)no2)C1 [Example 128, (R,E)-1-(3-((7-(8-chloronaphthalen-1-yl)-2-((hexahydro-1H-pyrrolizin-7a-yl)methoxy)-5,6,7,8-tetrahydropyrido[3,4-d]pyrimidin-4-yl)(methyl)amino)pyrrolidin-1-yl)-3-(3-(1-methylcyclopropyl)-1,2,4-oxadiazol-5-yl)prop-2-en-1-one]
10 to 100 | CN(c1nc(OCC23CCCN2CCC3)nc2c(F)c(-c3cccc4cccc(Cl)c34)ncc12)[C@@H]1CCN(C(=O)/C=C/c2nc([C@H]3C[C@@H]3F)no2)C1 [Example 129, (E)-1-((R)-3-((7-(8-chloronaphthalen-1-yl)-8-fluoro-2-((tetrahydro-1H-pyrrolizin-7a(5H)-yl)methoxy)pyrido[4,3-d]pyrimidin-4-yl)(methyl)amino)pyrrolidin-1-yl)-3-(3-((1R,2S)-2-fluorocyclopropyl)-1,2,4-oxadiazol-5-yl)prop-2-en-1-one]
100 to 500 | CN(c1nc(OC[C@@]23CCCN2C[C@H](F)C3)nc2c(F)c(-c3cccc4cccc(Cl)c34)ncc12)[C@@H]1CCN(C(=O)/C=C/c2cn(C)cn2)C1 [Example 135, (E)-1-((R)-3-((7-(8-chloronaphthalen-1-yl)-8-fluoro-2-(((2R,7aS)-2-fluorohexahydro-1H-pyrrolizin-7a-yl)methoxy)pyrido[4,3-d]pyrimidin-4-yl)(methyl)amino)pyrrolidin-1-yl)-3-(1-methyl-1H-imidazol-4-yl)prop-2-en-1-one]
10 to 100 | CC(C)c1noc(/C=C/C(=O)N2CC[C@@H](N(C)c3nc(OC[C@@]45CCCN4C[C@H](F)C5)nc4c3CCN(c3cccc5cccc(Cl)c35)C4)C2)n1 [Example 136, (E)-1-((R)-3-((7-(8-chloronaphthalen-1-yl)-2-(((2R,7aS)-2-fluorohexahydro-1H-pyrrolizin-7a-yl)methoxy)-5,6,7,8-tetrahydropyrido[3,4-d]pyrimidin-4-yl)(methyl)amino)pyrrolidin-1-yl)-3-(3-isopropyl-1,2,4-oxadiazol-5-yl)prop-2-en-1-one]
10 to 100 | C=CC(=O)N1CC[C@@H](N(C)c2nc(OC[C@@]34CCCN3C[C@H](O)C4)nc3c(F)c(-c4cccc5cccc(Cl)c45)ncc23)C1 [Example 137, 1-((R)-3-((7-(8-chloronaphthalen-1-yl)-8-fluoro-2-(((2R,7aS)-2-hydroxytetrahydro-1H-pyrrolizin-7a(5H)-yl)methoxy)pyrido[4,3-d]pyrimidin-4-yl)(methyl)amino)pyrrolidin-1-yl)prop-2-en-1-one]
10 to 100 | Cc1nsc(/C=C/C(=O)N2CC[C@@H](N(C)c3nc(OCC45CCCN4CCC5)nc4c(F)c(-c5cccc6cccc(Cl)c56)ncc34)C2)n1 [Example 138, (R,E)-1-(3-((7-(8-chloronaphthalen-1-yl)-8-fluoro-2-((tetrahydro-1H-pyrrolizin-7a(5H)-yl)methoxy)pyrido[4,3-d]pyrimidin-4-yl)(methyl)amino)pyrrolidin-1-yl)-3-(3-methyl-1,2,4-thiadiazol-5-yl)prop-2-en-1-one]
10 to 100 | CN(c1nc(OCC23CCCN2CCC3)nc2c1CCN(c1cccc3cccc(Cl)c13)C2)[C@@H]1CCN(C(=O)/C=C/c2nc([C@H]3C[C@@H]3F)no2)C1 [Example 141, (E)-1-((R)-3-((7-(8-chloronaphthalen-1-yl)-2-((hexahydro-1H-pyrrolizin-7a-yl)methoxy)-5,6,7,8-tetrahydropyrido[3,4-d]pyrimidin-4-yl)(methyl)amino)pyrrolidin-1-yl)-3-(3-((1R,2S)-2-fluorocyclopropyl)-1,2,4-oxadiazol-5-yl)prop-2-en-1-one]
100 to 500 | Cc1coc(/C=C/C(=O)N2CC[C@@H](N(C)c3nc(OCC45CCCN4CCC5)nc4c(F)c(-c5cccc6cccc(Cl)c56)ncc34)C2)n1 [Example 143, (R,E)-1-(3-((7-(8-chloronaphthalen-1-yl)-8-fluoro-2-((tetrahydro-1H-pyrrolizin-7a(5H)-yl)methoxy)pyrido[4,3-d]pyrimidin-4-yl)(methyl)amino)pyrrolidin-1-yl)-3-(4-methyloxazol-2-yl)prop-2-en-1-one]

From patent US20250019387A1 (Frontier Medicines Corporation, priority 0001, published 2025)
